Source: patent publication US20250073339A1, “CONJUGATES COMPRISING CLEAVABLE LINKERS” (priority 2023, published 2025)
Numbered stars: 1 amine (or outer) side, 2 acyl side, 3 side chain; on linkers, the order of the positions; unused ones are H or OH. Square brackets hold non-standard residues; d marks the D form. Peptide text beside a SMILES is read from it. * marks the point of attachment. X1 = O=C(O)[C@H]1O[C@@H](Oc2ccc(COC(=O)[*:2])cc2N[*:1])[C@H](O)[C@@H](O)[C@@H]1O; CH3O(CH2CH2O)11CH2CH2CO = COCCOCCOCCOCCOCCOCCOCCOCCOCCOCCOCCOCCC(=O)*; Dolaproine = CO[C@@H]([C@@H]1CCCN1)[C@@H](C)C(=O)O; Hexanoyl(6-maleimido) = O=C1C=CC(=O)N1CCCCCC(=O)*; Propanoyl(3-maleimido) = O=C1C=CC(=O)N1CCC(=O)*; Dil = CC[C@H](C)[C@H](NC)[C@@H](CC(=O)O)OC; PABC = O=C(OCc1ccc(N[*:1])cc1)[*:2]; X2 = C[C@@H](N*)[C@@H](O)c1ccccc1; Cit = NC(=O)NCCC[C@H](N)C(=O)O; NMeV = CN[C@H](C(=O)O)C(C)C; βAla = NCCC(=O)O

Columns and labels:
Assay type in all cases: biochemical
[1] = biological target: T1, Human neutrophil elastase (Homo sapiens, UniProt P08246); experiment: Linker-Payload enzymatic cleavage with human neutrophil elastase; conditions: 0.67 μM enzyme, 67 μM Linker-Payload, pH 7.4, 37° C., 24 hours
T1 sequence (P08246 30-267): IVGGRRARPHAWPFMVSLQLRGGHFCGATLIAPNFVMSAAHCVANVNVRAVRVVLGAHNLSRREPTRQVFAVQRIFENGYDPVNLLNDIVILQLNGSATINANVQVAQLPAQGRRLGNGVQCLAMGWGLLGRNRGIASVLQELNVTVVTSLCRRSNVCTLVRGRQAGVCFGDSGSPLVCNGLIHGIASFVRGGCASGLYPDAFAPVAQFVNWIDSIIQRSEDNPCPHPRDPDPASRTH
Protocol: (§1) 0.67 μM Human neutrophil elastase was added to 67 μM Linker-Payload (1:100) in Tris Buffered Saline, pH 7.4. The mixture was incubated at 37° C. for a duration of 24 hours with intermediate timepoints collected and diluted 1:1 with buffer containing acetonitrile, water and formic acid. The sample was measured by reverse-phase HPLC with data quantified against a standard curve.

[2] = biological target: Cathepsin B (Homo sapiens, UniProt P07858); experiment: Linker-Payload enzymatic cleavage with cathepsin B; conditions: FIG. 1B; 0.14 μM enzyme, 70 μM Linker-Payload, pH 5.0, 37° C., 24 hours
Protocol: as §1, with “0.14” for “0.67”, “Cathepsin B” for “Human neutrophil elastase”, “70” for “67”, “(1:500)” for “(1:100)”, “50 mM sodium acetate, 1 mM DTT,” for “Tris Buffered Saline,”, “5.0.” for “7.4.”

[3] = biological target: T2, β-glucuronidase (Homo sapiens, UniProt P08236); experiment: Linker-Payload enzymatic cleavage with β-glucuronidase; conditions: 4 nM enzyme, 40 μM Linker-Payload, pH 5.0, 37° C., 24 hours; for cleavage in the presence of β-glucuronidase: FIG. 1A
T2 sequence (P08236 23-651): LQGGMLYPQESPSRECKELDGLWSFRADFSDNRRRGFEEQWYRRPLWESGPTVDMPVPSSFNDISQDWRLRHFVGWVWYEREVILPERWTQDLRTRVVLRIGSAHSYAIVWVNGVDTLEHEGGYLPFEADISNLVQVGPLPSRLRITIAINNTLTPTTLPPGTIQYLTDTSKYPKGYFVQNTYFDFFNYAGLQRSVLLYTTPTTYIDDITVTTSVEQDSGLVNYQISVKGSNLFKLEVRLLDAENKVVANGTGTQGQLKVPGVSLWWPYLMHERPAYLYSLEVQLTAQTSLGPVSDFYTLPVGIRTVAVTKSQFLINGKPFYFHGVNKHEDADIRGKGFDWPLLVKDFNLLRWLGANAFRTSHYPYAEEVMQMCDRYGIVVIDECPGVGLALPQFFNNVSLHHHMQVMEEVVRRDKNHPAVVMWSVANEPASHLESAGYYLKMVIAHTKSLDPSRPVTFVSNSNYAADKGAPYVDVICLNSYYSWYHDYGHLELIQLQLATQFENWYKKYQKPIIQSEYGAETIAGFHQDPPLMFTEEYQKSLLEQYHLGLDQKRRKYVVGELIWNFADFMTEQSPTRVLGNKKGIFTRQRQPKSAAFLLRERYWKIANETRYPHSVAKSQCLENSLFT
Protocol: as §1, with “4 nM β-glucuronidase” for “0.67 μM Human neutrophil elastase”, “40” for “67”, “(1:10,000)” for “(1:100)”, “50 mM sodium acetate,” for “Tris Buffered Saline,”, “5.0.” for “7.4.”

Row | SMILES | cleavage in the presence of human neutrophil elastase ([1]; FIG. 1C) | cleavage in the presence of cathepsin B [2] | cleavage in the presence of β-glucuronidase [3] | cleavage in the presence of β-glucuronidase relative to references ([3]; FIG. 1E) | cleavage in the presence of human neutrophil elastase ([1]; FIG. 1D)
1 | CC[C@H](C)[C@@H]([C@@H](CC(=O)N1CCC[C@H]1[C@H](OC)[C@@H](C)C(=O)N[C@H](C)[C@@H](O)c1ccccc1)OC)N(C)C(=O)[C@@H](NC(=O)[C@H](C(C)C)N(C)C(=O)OCc1ccc(NC(=O)[C@H](CCCNC(N)=O)NC(=O)[C@@H](NC(=O)CCCCCN2C(=O)C=CC2=O)C(C)C)cc1)C(C)C [LP1, maleimidocaproyl-valine-citrulline-p-aminobenzoyloxycarbonyl-MMAE, reference compound] ({Hexanoyl(6-maleimido)}-V[Cit][PABC][NMeV]V[Dil][Dolaproine]-X2) | underwent more rapid cleavage | – | – | – | –
2 | CC[C@H](C)[C@@H]([C@@H](CC(=O)N1CCC[C@H]1[C@H](OC)[C@@H](C)C(=O)N[C@H](C)[C@@H](O)c1ccccc1)OC)N(C)C(=O)[C@@H](NC(=O)[C@H](C(C)C)N(C)C(=O)OCc1ccc(O[C@@H]2O[C@H](C(=O)O)[C@@H](O)[C@H](O)[C@H]2O)c(CNC(=O)CCNC(=O)COC2(CNC(=O)CCN3C(=O)C=CC3=O)CN(C(=O)CCOCCOCCOCCOCCOCCOCCOCCOCCOCCOCCOCCOC)C2)c1)C(C)C [LP2] | did not undergo rapid cleavage | neither LP2 nor LP3 underwent rapid cleavage | underwent significant cleavage | underwent slower cleavage than both LP7 (Reference) and LP8 (Reference) | did not undergo rapid cleavage
3 | CC[C@H](C)[C@@H]([C@@H](CC(=O)N1CCC[C@H]1[C@H](OC)[C@@H](C)C(=O)N[C@H](C)[C@@H](O)c1ccccc1)OC)N(C)C(=O)[C@@H](NC(=O)[C@H](C(C)C)N(C)C(=O)OCc1ccc(O[C@@H]2O[C@H](C(=O)O)[C@@H](O)[C@H](O)[C@H]2O)c(CNC(=O)COC2(CNC(=O)CCN3C(=O)C=CC3=O)CN(C(=O)CCOCCOCCOCCOCCOCCOCCOCCOCCOCCOCCOCCOC)C2)c1)C(C)C [LP3] | did not undergo rapid cleavage | neither LP2 nor LP3 underwent rapid cleavage | underwent significant cleavage | – | –
4 | CC[C@H](C)[C@@H]([C@@H](CC(=O)N1CCC[C@H]1[C@H](OC)[C@@H](C)C(=O)N[C@H](C)[C@@H](O)c1ccccc1)OC)N(C)C(=O)[C@@H](NC(=O)[C@H](C(C)C)N(C)C(=O)OCc1ccc(O[C@@H]2O[C@H](C(=O)O)[C@@H](O)[C@H](O)[C@H]2O)c(CNC(=O)CCNC(=O)[C@H](CCCCNC(=O)CCOCCOCCOCCOCCOCCOCCOCCOCCOCCOCCOCCOC)NC(=O)CCN2C(=O)C=CC2=O)c1)C(C)C [LP7, reference compound] | – | – | – | – | did not undergo rapid cleavage
5 | CC[C@H](C)[C@@H]([C@@H](CC(=O)N1CCC[C@H]1[C@H](OC)[C@@H](C)C(=O)N[C@H](C)[C@@H](O)c1ccccc1)OC)N(C)C(=O)[C@@H](NC(=O)[C@H](C(C)C)N(C)C(=O)OCc1ccc(O[C@@H]2O[C@H](C(=O)O)[C@@H](O)[C@H](O)[C@H]2O)c(NC(=O)CCNC(=O)[C@H](CCCCNC(=O)CCOCCOCCOCCOCCOCCOCCOCCOCCOCCOCCOCCOC)NC(=O)CCN2C(=O)C=CC2=O)c1)C(C)C [LP8, reference compound] ({Propanoyl(3-maleimido)}-K(CH3O(CH2CH2O)11CH2CH2CO)[βAla][X1][NMeV]V[Dil][Dolaproine]-X2) | – | – | – | – | did not undergo rapid cleavage
